Columns and labels:
[1] = cn = amount concentration of the nth substance listed, in mol/dm3; conditions: 100 kPa, Liquid
[2] = 298.15 K, Liquid; for viscosity: 100 kPa; for mass density: 101.33 kPa

[I-].[NH4+] [ammonium iodide] + CCO
[1]
Conditions | mass density [kg/m3] | viscosity [mPa·s]
298.15 K, c1 = 0.1638 | 804.1 | 1.229
298.15 K, c1 = 0.2289 | 811.7 | 1.275
298.15 K, c1 = 0.3302 | 823.9 | 1.35
298.15 K, c1 = 0.4015 | 832.7 | 1.414
298.15 K, c1 = 0.4696 | 841.1 | 1.495
298.15 K, c1 = 0.6094 | 859.4 | 1.557
298.15 K, c1 = 0.6694 | 867 | 1.598
298.15 K, c1 = 0.7343 | 875.8 | 1.663
298.15 K, c1 = 0.8676 | 894.5 | 1.77
298.15 K, c1 = 0.972 | 908.9 | 1.839
303.15 K, c1 = 0.1629 | 799.8 | 1.12
303.15 K, c1 = 0.2276 | 807.4 | 1.161
303.15 K, c1 = 0.3285 | 819.6 | 1.225
303.15 K, c1 = 0.3994 | 828.4 | 1.284
303.15 K, c1 = 0.4673 | 836.9 | 1.359
303.15 K, c1 = 0.6064 | 855.1 | 1.413
303.15 K, c1 = 0.6661 | 862.7 | 1.454
303.15 K, c1 = 0.7307 | 871.6 | 1.499
303.15 K, c1 = 0.8635 | 890.2 | 1.599
303.15 K, c1 = 0.9674 | 904.7 | 1.674
308.15 K, c1 = 0.162 | 795.5 | 1.048
308.15 K, c1 = 0.2264 | 803.1 | 1.059
308.15 K, c1 = 0.3268 | 815.3 | 1.117
308.15 K, c1 = 0.3974 | 824.1 | 1.165
308.15 K, c1 = 0.4658 | 834.2 | 1.241
308.15 K, c1 = 0.6033 | 850.8 | 1.287
308.15 K, c1 = 0.6628 | 858.4 | 1.327
308.15 K, c1 = 0.7271 | 867.3 | 1.365
308.15 K, c1 = 0.8593 | 885.9 | 1.459
308.15 K, c1 = 0.9628 | 900.4 | 1.544
313.15 K, c1 = 0.1611 | 791.1 | 0.935
313.15 K, c1 = 0.2252 | 798.8 | 0.968
313.15 K, c1 = 0.3251 | 811 | 1.02
313.15 K, c1 = 0.3952 | 819.7 | 1.062
313.15 K, c1 = 0.4634 | 829.3 | 1.1
313.15 K, c1 = 0.6003 | 846.5 | 1.175
313.15 K, c1 = 0.6595 | 854.1 | 1.226
313.15 K, c1 = 0.7235 | 863 | 1.246
313.15 K, c1 = 0.8551 | 881.6 | 1.324
313.15 K, c1 = 0.9582 | 896.1 | 1.388

[I-].[NH4+] [ammonium iodide] + CO
[1]
Conditions | mass density [kg/m3] | viscosity [mPa·s]
298.15 K, c1 = 0.1696 | 807.2 | 0.597
298.15 K, c1 = 0.3281 | 826.3 | 0.628
298.15 K, c1 = 0.4765 | 845.4 | 0.674
298.15 K, c1 = 0.5841 | 859.1 | 0.692
298.15 K, c1 = 0.5862 | 859.4 | 0.688
298.15 K, c1 = 0.7482 | 881.8 | 0.737
298.15 K, c1 = 0.8737 | 899.4 | 0.771
298.15 K, c1 = 0.9947 | 916.9 | 0.802
298.15 K, c1 = 1.105 | 933.34 | 0.836
298.15 K, c1 = 1.209 | 949.2 | 0.865
298.15 K, c1 = 1.334 | 968.4 | 0.903
298.15 K, c1 = 1.417 | 981.5 | 0.93
298.15 K, c1 = 1.507 | 996.2 | 0.96
303.15 K, c1 = 0.1686 | 802.6 | 0.557
303.15 K, c1 = 0.3262 | 821.6 | 0.586
303.15 K, c1 = 0.4739 | 840.8 | 0.628
303.15 K, c1 = 0.581 | 854.5 | 0.648
303.15 K, c1 = 0.7443 | 877.2 | 0.688
303.15 K, c1 = 0.8692 | 894.8 | 0.719
303.15 K, c1 = 0.9897 | 912.3 | 0.749
303.15 K, c1 = 1.099 | 928.8 | 0.781
303.15 K, c1 = 1.203 | 944.6 | 0.809
303.15 K, c1 = 1.327 | 963.8 | 0.847
303.15 K, c1 = 1.41 | 976.9 | 0.868
303.15 K, c1 = 1.5 | 991.6 | 0.898
308.15 K, c1 = 0.1676 | 797.9 | 0.522
308.15 K, c1 = 0.3018 | 813.9 | 0.54
308.15 K, c1 = 0.4712 | 836.1 | 0.587
308.15 K, c1 = 0.5799 | 850.1 | 0.6
308.15 K, c1 = 0.7404 | 872.6 | 0.644
308.15 K, c1 = 0.8647 | 890.2 | 0.682
308.15 K, c1 = 0.9847 | 907.6 | 0.701
308.15 K, c1 = 1.094 | 924.3 | 0.729
308.15 K, c1 = 1.197 | 940 | 0.756
308.15 K, c1 = 1.321 | 959.2 | 0.789
308.15 K, c1 = 1.403 | 972.3 | 0.813
308.15 K, c1 = 1.493 | 987 | 0.84
313.15 K, c1 = 0.1667 | 793.1 | 0.49
313.15 K, c1 = 0.3001 | 809.2 | 0.506
313.15 K, c1 = 0.4686 | 831.4 | 0.551
313.15 K, c1 = 0.5767 | 845.4 | 0.563
313.15 K, c1 = 0.7364 | 867.9 | 0.604
313.15 K, c1 = 0.8602 | 885.5 | 0.631
313.15 K, c1 = 0.9797 | 903 | 0.658
313.15 K, c1 = 1.089 | 920 | 0.685
313.15 K, c1 = 1.191 | 935.4 | 0.71
313.15 K, c1 = 1.315 | 954.6 | 0.741
313.15 K, c1 = 1.397 | 967.7 | 0.763
313.15 K, c1 = 1.486 | 982.4 | 0.788

CCO [ethanol]
[2]
Conditions | mass density [kg/m3] | viscosity [mPa·s]
– | 785.2 | 1.082

CO [methanol]
[2]
Conditions | mass density [kg/m3] | viscosity [mPa·s]
– | 786.2 | 0.545

[I-].[K+] [potassium iodide] + CO
[1]
Conditions | mass density [kg/m3] | viscosity [mPa·s]
298.15 K, c1 = 0.0906 | 800.8 | 0.578
298.15 K, c1 = 0.1458 | 809 | 0.598
298.15 K, c1 = 0.1806 | 814.3 | 0.609
298.15 K, c1 = 0.2451 | 824.3 | 0.628
298.15 K, c1 = 0.3767 | 845.3 | 0.665
298.15 K, c1 = 0.4151 | 851.6 | 0.677
298.15 K, c1 = 0.4787 | 862.2 | 0.695
298.15 K, c1 = 0.5381 | 872.4 | 0.724
298.15 K, c1 = 0.614 | 885.4 | 0.737
298.15 K, c1 = 0.6541 | 892.7 | 0.75
303.15 K, c1 = 0.0901 | 796.1 | 0.539
303.15 K, c1 = 0.1449 | 804.3 | 0.558
303.15 K, c1 = 0.1795 | 809.6 | 0.568
303.15 K, c1 = 0.2437 | 819.5 | 0.587
303.15 K, c1 = 0.3745 | 840.6 | 0.62
303.15 K, c1 = 0.4127 | 846.8 | 0.631
303.15 K, c1 = 0.476 | 857.5 | 0.653
303.15 K, c1 = 0.535 | 867.6 | 0.664
303.15 K, c1 = 0.6106 | 880.5 | 0.685
303.15 K, c1 = 0.6505 | 887.8 | 0.697
308.15 K, c1 = 0.0895 | 791.3 | 0.504
308.15 K, c1 = 0.1441 | 799.6 | 0.522
308.15 K, c1 = 0.1785 | 804.9 | 0.532
308.15 K, c1 = 0.2423 | 814.8 | 0.548
308.15 K, c1 = 0.3724 | 835.8 | 0.58
308.15 K, c1 = 0.4104 | 842 | 0.59
308.15 K, c1 = 0.4733 | 852.7 | 0.615
308.15 K, c1 = 0.5321 | 862.8 | 0.623
308.15 K, c1 = 0.6073 | 875.7 | 0.639
308.15 K, c1 = 0.647 | 883 | 0.651
313.15 K, c1 = 0.1432 | 794.8 | 0.489
313.15 K, c1 = 0.1774 | 800.1 | 0.498
313.15 K, c1 = 0.2409 | 810 | 0.513
313.15 K, c1 = 0.3704 | 831.1 | 0.543
313.15 K, c1 = 0.4081 | 837.2 | 0.552
313.15 K, c1 = 0.4707 | 847.8 | 0.572
313.15 K, c1 = 0.5291 | 858 | 0.58
313.15 K, c1 = 0.604 | 870.8 | 0.598
313.15 K, c1 = 0.6435 | 878.1 | 0.608
